According to publication PMC5843811, “^44Sc for labeling of DOTA- and NODAGA-functionalized peptides: preclinical in vitro and in vivo investigations” (EJNMMI Radiopharmacy and Chemistry, 2016):

Experiments:
[1] = Biodistribution in AR42J tumor-bearing mice; conditions: female, CD-1 nude (athymic nude), mouse, iv, total radioactivity, i.v. ~5 MBq (~1 nmol), mean ± SD, n=3; for tissue to tissue ratio at 0.5 h / tissue uptake at 0.5 h: 30 min p.i.; for tissue to tissue ratio at 2 h / tissue uptake at 2 h: 2 h p.i.; for tissue to tissue ratio at 5 h / tissue uptake at 5 h: 5 h p.i.; for tissue uptake at 0.5 h / tissue uptake at 2 h / tissue uptake at 5 h: Biodistribution
Protocol: Female athymic nude mice (CD-1 nude), age 5–6 weeks, were obtained from Charles River Laboratories, Sulzfeld, Germany. U87MG cells and AR42J-cells were suspended in PBS (5 × 10^6 cells in 100 μL) and subcutaneously inoculated on each shoulder. Two to three weeks later, when the tumor reached a size of about 300–500 mm^3, the mice were used for the in vivo studies.
Biodistribution studies were performed with U87MG tumor and AR42J tumor-bearing mice 2 weeks after tumor cell inoculation. ^44Sc- and ^68Ga-labeled peptides (~5 MBq, ~1 nmol per mouse) were intravenously injected in a volume of 100–200 μL. Mice were sacrificed at 30 min, 2 h and 5 h after injection (p.i.) of the ^44Sc-labeled peptides. Mice which were injected with ^68Ga-labeled peptides were sacrificed at 30 min and 2 h p.i. Selected tissues and organs were collected, weighed, and counted for radioactivity using a γ-counter (Wallac Wizard 1480, Perkin Elmer). The results were listed as a percentage of the injected activity per gram of tissue mass (% IA/g), using counts of a defined volume of the original injection solution counted at the same time. The data were analyzed for significance using a two-way ANOVA test (Graph Pad Prism 6 software, version 6.05). A p-value of < 0.05 was considered statistically significant.

AR42J tumor-bearing mice = assay: PET/CT imaging of AR42J tumor-bearing mice; conditions: 3 h after i.v. injection of ~10 MBq (~1 nmol; ^44Sc-NODAGA-NOC ~3 nmol), one or two mice
Protocol: A bench-top preclinical PET scanner (G8, Sofie Biosciences, California, U.S.A. and Perkin Elmer, Massachusetts, U.S.A.) was employed for the PET scans of the tumor-bearing mice. The energy window was set to 150–650 keV. Mice were injected intravenously with ^44Sc- or ^68Ga-labeled peptides (~10 MBq, ~1 nmol per mouse) in a volume of 100–200 μL. The PET scans were performed 3 h and 5 h after injection of the ^44Sc-labeled peptides and 3 h after injection of the ^68Ga-labeled peptides, using G8 acquisition software (version 2.0.0.10). All static PET scans lasted for 20 min. During the acquisition the mice were anesthetized by inhalation of a mixture of isoflurane and oxygen. The images were reconstructed with maximum-likelihood expectation maximization (MLEM). Gauss post-reconstruction filtering was performed using VivoQuant post-processing software (version 2.10, inviCRO Imaging Services and Software, Boston, U.S.A.).

[2] = AR42J tumor / blood, Tumor-to-blood ratio
[3] = AR42J tumor / kidneys, Tumor-to-kidney ratio
[4] = AR42J tumor / liver, Tumor-to-liver ratio

## C[C@@H](O)[C@@H]1NC(=O)[C@H](CCCCN)NC(=O)[C@@H](Cc2c[nH]c3ccccc23)NC(=O)[C@H](Cc2cccc3ccccc23)NC(=O)[C@@H](NC(=O)[C@@H](Cc2ccccc2)NC(=O)CCC(C(=O)O)N2CCN(CC(=O)O)CCN(CC(=O)O)CC2)CSSC[C@@H](C(=O)N[C@H](CO)[C@@H](C)O)NC1=O (some centres unmarked) [^44Sc-NODAGA-NOC, metal not drawn]
[1]; [2]
  tissue to tissue ratio at 0.5 h: 5.23 ± 0.22
  tissue to tissue ratio at 2 h: 50.3 ± 16.8
  tissue to tissue ratio at 5 h: 78.6 ± 6.95
[1]; [3]
  tissue to tissue ratio at 0.5 h: 0.8 ± 0.1
  tissue to tissue ratio at 2 h: 1.22 ± 0.34
  tissue to tissue ratio at 5 h: 0.87 ± 0.24
[1]; [4]
  tissue to tissue ratio at 0.5 h: 8.13 ± 0.72
  tissue to tissue ratio at 5 h: 11.6 ± 1.51
[1]; AR42J tumor
  tissue uptake at 0.5 h: 9.9 ± 0.66 %ID/g
  tissue uptake at 2 h: 10.2 ± 1.17 %ID/g
  tissue uptake at 5 h: 10.8 ± 0.37 %ID/g
[1]; adrenals
  tissue uptake at 5 h: 2.87 ± 0.95 %ID/g
[1]; blood
  tissue uptake at 0.5 h: 1.89 ± 0.08 %ID/g
  tissue uptake at 2 h: 0.22 ± 0.06 %ID/g
  tissue uptake at 5 h: 0.14 ± 0.01 %ID/g
[1]; bone
  tissue uptake at 0.5 h: 1.38 ± 0.17 %ID/g
  tissue uptake at 5 h: 0.46 ± 0.06 %ID/g
[1]; brain
  tissue uptake at 0.5 h: 0.09 ± 0.01 %ID/g
  tissue uptake at 5 h: 0.06 ± 0.01 %ID/g
[1]; heart
  tissue uptake at 5 h: 0.3 ± 0.04 %ID/g
[1]; intestines, 5 MBq per mouse
  tissue uptake at 0.5 h: 0.74 ± 0.1 %ID/g
[1]; intestines
  tissue uptake at 2 h: 0.29 ± 0.07 %ID/g
  tissue uptake at 5 h: 0.38 ± 0.06 %ID/g
[1]; kidneys
  tissue uptake at 0.5 h: 12.4 ± 1.41 %ID/g
  tissue uptake at 2 h: 8.64 ± 1.62 %ID/g
  tissue uptake at 5 h: 13 ± 2.98 %ID/g
[1]; liver
  tissue uptake at 0.5 h: 1.22 ± 0.11 %ID/g
  tissue uptake at 2 h: 0.88 ± 0.15 %ID/g
  tissue uptake at 5 h: 0.94 ± 0.12 %ID/g
[1]; lung
  tissue uptake at 0.5 h: 4.28 ± 0.03 %ID/g
  tissue uptake at 2 h: 1.19 ± 0.28 %ID/g
  tissue uptake at 5 h: 0.89 ± 0.14 %ID/g
[1]; muscle
  tissue uptake at 0.5 h: 0.66 ± 0.08 %ID/g
  tissue uptake at 5 h: 0.26 ± 0.07 %ID/g
[1]; pancreas, 5 MBq per mouse
  tissue uptake at 0.5 h: 1.6 ± 0.12 %ID/g
  tissue uptake at 2 h: 1.12 ± 0.07 %ID/g
  tissue uptake at 5 h: 1.35 ± 0.29 %ID/g
[1]; spleen
  tissue uptake at 0.5 h: 0.91 ± 0.2 %ID/g
  tissue uptake at 2 h: 0.38 ± 0.05 %ID/g
  tissue uptake at 5 h: 0.47 ± 0.05 %ID/g
[1]; stomach, 5 MBq per mouse
  tissue uptake at 0.5 h: 1.45 ± 0.28 %ID/g
  tissue uptake at 2 h: 1.26 ± 0.22 %ID/g
  tissue uptake at 5 h: 1.24 ± 0.09 %ID/g
AR42J tumor-bearing mice
  PET/CT distribution of radioactivity (in words): accumulated solely in tumors and kidneys
